A short description of assay [1]: Compound was evaluated for the inhibition of Chymotrypsinogen.
In the next assay the target is T1, Chymotrypsin-C (Homo sapiens, UniProt Q99895).
T1 sequence (Q99895 whole entry): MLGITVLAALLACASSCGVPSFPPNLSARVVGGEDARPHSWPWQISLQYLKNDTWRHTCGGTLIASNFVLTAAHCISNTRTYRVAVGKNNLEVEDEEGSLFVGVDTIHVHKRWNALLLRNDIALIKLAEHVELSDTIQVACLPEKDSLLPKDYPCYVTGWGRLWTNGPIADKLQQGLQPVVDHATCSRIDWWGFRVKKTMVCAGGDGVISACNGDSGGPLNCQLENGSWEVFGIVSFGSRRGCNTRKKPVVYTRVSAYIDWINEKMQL
Kind of assay: ChEBML_49751. How it is done: Compound was evaluated for the inhibition of Chymotrypsinogen

`O=C1O[C@H]2CCC[C@@H]2[C@@H]1Sc1ccccc1` [(3S,3aS,6aS)-3-Phenylsulfanyl-hexahydro-cyclopenta[b]furan-2-one] had an IC50 in assay [1] of over 100 µM.
On to `N=C(N)c1ccc(C[C@H]2C(=O)O[C@H]3CCC[C@@H]32)cc1` [4-((3R,3aR,6aS)-2-Oxo-hexahydro-cyclopenta[b]furan-3-ylmethyl)-benzamidine; compound with acetic acid], for which the half-maximal inhibitory concentration (IC50) against Chymotrypsin-C was over 100 µM.
For `O=C1O[C@H]2CCC[C@@H]2[C@@H]1Cc1ccccc1` [(3S,3aR,6aS)-3-Benzyl-hexahydro-cyclopenta[b]furan-2-one], the IC50 in assay [1] was over 100 µM.
The same measure, in the same setting: the same measure for `O=C1O[C@H]2CCC[C@@H]2[C@H]1Cc1ccccc1` [(3R,3aR,6aS)-3-Benzyl-hexahydro-cyclopenta[b]furan-2-one]: over 100 µM.
Same read-out and setting: next, `O=C1O[C@H]2CCC[C@@H]2[C@H]1Sc1ccccc1` [(3R,3aS,6aS)-3-Phenylsulfanyl-hexahydro-cyclopenta[b]furan-2-one]: over 0.1 µM.
The same measure, in the same setting: the same measure for `N=C(N)CCCC[C@H]1C(=O)O[C@H]2CCC[C@@H]21`: over 100 µM; for `CC(C)=CC(=O)C[C@@H]1C(=O)O[C@H]2CCC[C@@H]21` [(3S,3aR,6aS)-3-(4-Methyl-2-oxo-pent-3-enyl)-hexahydro-cyclopenta[b]furan-2-one]: over 100 µM.
As for `N=C(N)c1cccc(C[C@H]2C(=O)O[C@H]3CCC[C@@H]32)c1` [3-((3R,3aR,6aS)-2-Oxo-hexahydro-cyclopenta[b]furan-3-ylmethyl)-benzamidine; compound with acetic acid], the IC50 in assay [1] is over 100 µM.

By IC50 is commonly meant the concentration that gives 50% inhibition. Read a high IC50 as a need for much substance.
